Data published in patent US6686333B1, “Inhibition of HIV replication using soluble Tat peptide analogs” (priority 1996, dated 2004).

Key:
[1] = tested on: CMV promoter; assay: CAT assay with pCMV-CAT reporter; assay type: cell-based; conditions: decreased from 17.8
Experimental: (§1) Cells were electroporated as described previously (Kashanchi F, et al. (1992), Nucleic Acids Res, 20:4673-4674). CEM CD4^+ lymphocytes (12D7) (as well as U1 and HeLa cells described in subsequent examples) were kept at a density of 0.5 to 0.8×10^6 cells/ml with media added daily. Typically, 5×10^6 cells were electroporated with purified peptides, Tat protein and/or 5 μg of a reporter plasmid. Synthetic Tat peptides were purified by HPLC to 95 percent purity (Peptide Technologies Corporation, Gaithersburg, Md.). All peptides were analyzed for purity on a 4-20 percent gradient SDS/PAGE followed by silver staining. Recombinant Tat protein was purified by reverse phase HPLC and tested for functional activity in an in vitro transcription assay and in vivo electroporation into CEM cells (Kashanchi F, et al. (1992), Nucleic Acids Res, 20:4673-4674; Bohan Calif., et al. (1992) Gene Expr, 2:391-407). Tat peptide, Tat protein, and the reporter HIV LTR-CAT were mixed with cells and electroporated using a cell porater apparatus (Gibco/BRL, Gaithersburg, Md.). Cell mixtures were electroporated at 800 μF, 230 volts, in RPMI 1640 media without fetal calf serum. Following electroporation, cells were plated in 10 ml of complete media and samples collected 48 hours later for either CAT assay, p24 Gag antigen capture assay or northern blot analysis. […]

[2] = tested on: Tat transactivation of the HIV-1 promoter; assay: Transfection and CAT assay: Tat transactivation of HIV-1 LTR-CAT reporter in electroporated CEM lymphocytes; assay type: cell-based; conditions: for Tat transactivation (CAT) in presence of peptide: suppression from 95.7, Tat protein 1 μg, peptide 5 μg, HIV-1 LTR-CAT 5 μg, CEM
Experimental: Initial studies focused on the analysis of a series of Tat peptide analogs, containing various amino acid substitutions, for their ability to inhibit Tat transactivation of the HIV-1 promoter. CEM lymphocytes, grown to early- to mid-log phase, were electroporated with the Tat protein (1 μg), Tat core peptide 36-50 (5 μg) and the HIV-1 LTR-CAT reporter (5 μg).
(§2) Cells were electroporated as described previously (Kashanchi F, et al. (1992), Nucleic Acids Res, 20:4673-4674). CEM CD4^+ lymphocytes (12D7) (as well as U1 and HeLa cells described in subsequent examples) were kept at a density of 0.5 to 0.8×10^6 cells/ml with media added daily. Typically, 5×10^6 cells were electroporated with purified peptides, Tat protein and/or 5 μg of a reporter plasmid. Synthetic Tat peptides were purified by HPLC to 95 percent purity (Peptide Technologies Corporation, Gaithersburg, Md.). All peptides were analyzed for purity on a 4-20 percent gradient SDS/PAGE followed by silver staining. Recombinant Tat protein was purified by reverse phase HPLC and tested for functional activity in an in vitro transcription assay and in vivo electroporation into CEM cells (Kashanchi F, et al. (1992), Nucleic Acids Res, 20:4673-4674; Bohan Calif., et al. (1992) Gene Expr, 2:391-407). Tat peptide, Tat protein, and the reporter HIV LTR-CAT were mixed with cells and electroporated using a cell porater apparatus (Gibco/BRL, Gaithersburg, Md.). Cell mixtures were electroporated at 800 μF, 230 volts, in RPMI 1640 media without fetal calf serum. Following electroporation, cells were plated in 10 ml of complete media and samples collected 48 hours later for either CAT assay, p24 Gag antigen capture assay or northern blot analysis. Samples receiving rTNF-α (R & D System, Minneapolis, MN) after electroporation were collected 48 hours post-treatment for p24 Gag antigen capture assay (ABI, Bethesda, Md.).

[3] = tested on: TBP/Tat-activated transcription; assay: Gal4-Tat / CMV-TBP activated minimal HIV-1 promoter CAT assay in CEM cells; assay type: cell-based; conditions: CEM T-cells, Gal4-TATA+/TAR- reporter
Experimental: It was of interest to determine if the Tat peptide analog targeted the interaction of Tat with TBP in vivo. For these experiments, we used a minimal HIV-1 promoter (−31 to +21) with Gal4 binding sites located upstream of the promoter. CEM cells were transfected with combinations of Gal4-TATA^+/TAR^− reporter plasmid, Gal4-Tat and a CMV-TBP expression plasmid. Southgate CD, et al. (1991), Genes Dev, 5:2496-2507; Horikoshi N, et al. (1995), Mol Cell Biol, 15:227-234. Peptides were added at the time of electroporation. Following electroporation, cells were plated in complete media, harvested at 48 hours and CAT assays performed. The Gal4-TAT^+/TAR^− plasmid contains six Gal4 binding sites, followed by the HIV sequence from −31 to […]. This construct contains no Sp1 sites or a TAR element.
The ability of Gal4-Tat to activate this promoter is dependent upon the presence of exogenously added TBP. […] Xhou Q, et al. (1995), EMBO J, 14:321-328; Huang L M, et al. (1994), EMBO, 13:2886-2896. We next examined if the peptides were capable of downregulating the TBP/Tat-activated transcription by electroporating CEM T-cells with either wild type or peptide 41/44.

[4] = tested on: HIV-1 virus replication in U1/U937 co-cultivation; assay: Co-cultivation of transfected U1 cells with U937 monocyte cell line; assay type: cell-based; conditions: seven days of co-cultivation U1:U937 1:5; peptide 2.5 μg with Tat protein
From the text: It was of interest to determine whether the level of virus particles produced in the presence of Tat peptide analog 41/44 was sufficient to initiate a second round of virus replication. This is an important point to consider when designing specific inhibitors for HIV, since detection of p24 or reverse transcriptase in particles is not necessarily an indication of infectious particles. Dimitrov and Martin, Nature, 375:194-195 (1994). To address this question, we utilized co-cultivation assays in which the induced Ul cells were co-cultivated with the parental U937 monocyte cell line.
Transfected U1 cells (5×10^6) were co-cultivated with the U937 cells 48 hrs after transfection. The co-cultivation assay was initially tested using either a 1:1, 1:5, or 1:25 ratio of infected to uninfected cells. A 1:5 co-cultivation was determined to be the optimal ratio in obtaining the highest viral production within a 2 week period. Cells were co-cultivated in a total of 4 mls for a period of 2 weeks. After the fist week, 2 mls of media cells was removed and 2 mls of fresh media added. Both U937 and CEM cells were seeded at a density of 0.5×10^6 cells per culture dish prior to the co-cultivation experiment.
Initially, cells were electroporated with either wild type (2.5 μg) or peptide analog 41/44 (2.5 μg), along with Tat protein. […]

[5] = tested on: HIV virus replication in U1 cells; assay: Tat-induced virus production in latently infected U1 cells, p24 antigen capture assay; assay type: cell-based, HIV-1; conditions: Tat protein 2.5 μg
Experimental: as §1

[6] = tested on: HTLV-1 promoter; assay: CAT assay with HTLV-1 LTR (pU3R CAT) reporter, basal and Tax1 transactivated; assay type: cell-based; conditions: for basal transcription of the HTLV-1 promoter: decreased from 19
Experimental: as §2
(§3) It was of interest to determine if the peptides inhibited transcription from other polymerase II promoters. We have tested seven promoters including HTLV-1, CMV, PTHrP, IgH, RAS, RSV, and SIV. Each promoter, cloned upstream of the CAT reporter gene, was cotransfected individually with the Tat peptides under identical conditions. Electroporation was as in Example 1 but reporter genes used were HTLV-1 LTR (pU3R CAT, 5 μg) or pCMV-CAT (5 μg), containing the CMV promoter. […] For example, basal transcription of the HTLV-1 promoter decreased from 19 to 15.6 and 16.4 percent using 1 and 5,μg of the peptide analog 41/44. Similarly, Tat peptide analog 41/44 decreased Tax1 (1 μg) transactivated transcription approximately two-fold (49.2 to 22.8 percent). In other control experiments, transcription from the CMV promoter was decreased from 17.8 to 9.04 and 6.7 percent in the presence of 1 or 5 μg of Tat peptide analog 41/44.

[7] = tested on: cellular GAPDH gene; assay: Northern blot of U1 cells, cellular RNA; assay type: cell-based; conditions: U1 cells treated with Tat and peptide
Experimental: (§4) For northern blot analysis, U1 or HLM1 (Tat HIV proviral clone, Sadaie M R, et al. (1994), Virology, 202:513-518) cells were transfected with either Tat protein, or Tat protein in combination with peptides and collected 48 hrs later. Total RNA was extracted using the Trizol reagent (Gibco/BRL). RNA concentration was measured and equivalent amounts of RNA (5 μg) were loaded on a formaldehyde-agarose gel. The RNA was blotted onto nitrocellulose and hybridized with a randomly primed ^32P-labelled HIV-1 proviral genome BH10 (Lofstrand, Inc.), histone H2b, β-Actin or GAPDH probe (Oncor Science, Inc.). Blots were washed, exposed and quantitated using a PhosphorImager (Molecular Dynamics) […].
(§5) Cellular RNAs including actin, histone H2b, and GAPDH, were monitored in cells treated with Tat and peptide analogs. […] In contrast, no change in the expression of the cellular GAPDH gene was observed.

[8] = tested on: HTLV-1, CMV, PTHrP, IgH, RAS, RSV, and SIV promoters; assay: CAT assays with other polymerase II promoters; assay type: cell-based; conditions: seven promoters upstream of CAT, cotransfected with Tat peptides
Experimental: as §3

[9] = tested on: HIV-1 viral mRNA; assay: Northern blot of U1 cells, HIV-1 viral mRNA; assay type: cell-based; conditions: U1 cells treated with Tat and peptide, 48 hrs
Experimental: as §4, §5

Substance: V-C-F-T-T-A-A-L-A-I-S-Y-G-R-K (SEQ ID NO:7) (VCFTTAALSISYGRK) [Tat peptide analog 41/44]
- transcription from the CMV promoter ([1]; 1 μg peptide): 9.04%
- transcription from the CMV promoter ([1]; 5 μg peptide): 6.7%
- Tat transactivation (CAT) in presence of peptide [2]: 1.1%
- inhibition of TBP/Tat-activated transcription [3]: inhibited TBP/Tat-activated transcription
- decrease of virus production in co-cultivation [4]: 85%
- inhibition of virus replication in U1 cells ([5]; comparable experiment with 36-72 peptides): approximately 75%
- inhibition of Tat-induced virus production in U1 cells ([5]; peptide 5 μg, in comparison to wild type peptide 5 μg, p24, 48 hours): approximately 85%
- basal transcription of the HTLV-1 promoter ([6]; 1 μg peptide): 15.6%
- basal transcription of the HTLV-1 promoter ([6]; 5 μg peptide): 16.4%
- decrease of Tax1 transactivated transcription ([6]; Tax1 1 μg, 49.2 to 22.8 percent): approximately two-fold
- Tax1 transactivated transcription ([6]; Tax1 1 μg, decreased from 49.2): 22.8%
- expression of the cellular GAPDH gene [7]: no change
- inhibition of transcription from other polymerase II promoters [8]: minimal inhibition
- level of HIV-1 viral mRNA [9]: a decrease in the level of HIV-1 viral mRNA was detected

Substance: V-C-F-T-T-A-A-L-G-I-A-Y-G-R-K (SEQ ID NO:8) (VCFTTAALGIAYGRK) [peptide 41/46]
- Tat transactivation (CAT) in presence of peptide [2]: 5.5%

Substance: V-C-F-T-T-A-A-L-G-I-S-A-G-R-K (SEQ ID NO:9) (VCFTTAALGISAGRK) [Tat 36-50 (41/47)]
- Tat transactivation (CAT) in presence of peptide [2]: 12%

Substance: V-C-F-T-T-K-A-L-G-I-S-Y-G-R-K (SEQ ID NO:2) (VCFTTKALGISYGRK) [Tat 36-50, wild type Tat core peptide, amino acids 36-50, reference compound]
- drop in transcription activity ([2]; peptide included in the transfection with Tat protein): no apparent drop in transcription activity
- decrease of virus production in co-cultivation [4]: did not inhibit HIV virus replication
